Assays:
[1] = for Normal melting temperature: DTA
[2] = Molar enthalpy of transition or fusion; settings: Crystal; DSC

COc1c(Br)cc(Br)cc1Br [2,4,6-tribromoanisole]
[1]
Settings	vapor or sublimation pressure [kPa]
330.66 K, Crystal, Closed cell (Static) method	0.00284
332.63 K, Crystal, Closed cell (Static) method	0.00349
334.5 K, Crystal, Closed cell (Static) method	0.0042
336.57 K, Metastable liquid, Closed cell (Static) method	0.00889
336.63 K, Crystal, Closed cell (Static) method	0.0051
338.58 K, Crystal, Closed cell (Static) method	0.00623
338.61 K, Metastable liquid, Closed cell (Static) method	0.01033
340.54 K, Crystal, Closed cell (Static) method	0.00747
340.57 K, Metastable liquid, Closed cell (Static) method	0.01173
342.54 K, Metastable liquid, Closed cell (Static) method	0.01369
342.55 K, Crystal, Closed cell (Static) method	0.00915
344.5 K, Crystal, Closed cell (Static) method	0.01086
344.5 K, Metastable liquid, Closed cell (Static) method	0.01549
346.47 K, Crystal, Closed cell (Static) method	0.01317
346.48 K, Metastable liquid, Closed cell (Static) method	0.01786
348.43 K, Crystal, Closed cell (Static) method	0.01563
348.5 K, Metastable liquid, Closed cell (Static) method	0.02061
350.42 K, Crystal, Closed cell (Static) method	0.01881
350.43 K, Metastable liquid, Closed cell (Static) method	0.02345
352.4 K, Crystal, Closed cell (Static) method	0.0224
352.41 K, Metastable liquid, Closed cell (Static) method	0.02697
354.32 K, Crystal, Closed cell (Static) method	0.0266
354.42 K, Metastable liquid, Closed cell (Static) method	0.03065
356.36 K, Metastable liquid, Closed cell (Static) method	0.03485
356.37 K, Crystal, Closed cell (Static) method	0.03175
358.31 K, Metastable liquid, Closed cell (Static) method	0.03946
360.25 K, Metastable liquid, Closed cell (Static) method	0.04472
362.27 K, Closed cell (Static) method, Liquid	0.05049
364.24 K, Closed cell (Static) method, Liquid	0.05678
366.22 K, Closed cell (Static) method, Liquid	0.06459
368.15 K, Closed cell (Static) method, Liquid	0.07257
370.19 K, Closed cell (Static) method, Liquid	0.08197
372.11 K, Closed cell (Static) method, Liquid	0.09183
374.05 K, Closed cell (Static) method, Liquid	0.1023
376.07 K, Closed cell (Static) method, Liquid	0.1152
377.95 K, Closed cell (Static) method, Liquid	0.1277
379.95 K, Closed cell (Static) method, Liquid	0.1426
381.85 K, Closed cell (Static) method, Liquid	0.1595
383.82 K, Closed cell (Static) method, Liquid	0.177
385.79 K, Closed cell (Static) method, Liquid	0.1958
387.78 K, Closed cell (Static) method, Liquid	0.2203
389.79 K, Closed cell (Static) method, Liquid	0.2436
391.72 K, Closed cell (Static) method, Liquid	0.2676

Settings	Normal melting temperature [°C]
[1], Crystal	86.29

Settings	Molar enthalpy of transition or fusion [kcal/mol]
[2]	5.71

Oc1c(Br)cc(Br)cc1Br [2,4,6-tribromophenol]
Settings	mass density [kg/m3]
[1], 150 K, 101.33 kPa, Crystal, X-ray diffraction	2712

[1]
Settings	vapor or sublimation pressure [kPa]
307.16 K, Crystal, Calculated from knudsen effusion weight loss	0.000107
309.36 K, Crystal, Calculated from knudsen effusion weight loss	0.000141
311.2 K, Crystal, Calculated from knudsen effusion weight loss	0.000177
313.15 K, Crystal, Calculated from knudsen effusion weight loss	0.000221
315.37 K, Crystal, Calculated from knudsen effusion weight loss	0.000286
317.19 K, Crystal, Calculated from knudsen effusion weight loss	0.000358
319.15 K, Crystal, Calculated from knudsen effusion weight loss	0.00044
321.33 K, Crystal, Calculated from knudsen effusion weight loss	0.00057
323.2 K, Crystal, Calculated from knudsen effusion weight loss	0.0007
325.15 K, Crystal, Calculated from knudsen effusion weight loss	0.000857
327.33 K, Crystal, Calculated from knudsen effusion weight loss	0.0011
329.21 K, Crystal, Calculated from knudsen effusion weight loss	0.00133
336.49 K, Crystal, Closed cell (Static) method	0.00284
338.49 K, Crystal, Closed cell (Static) method	0.00343
340.48 K, Crystal, Closed cell (Static) method	0.00423
342.48 K, Crystal, Closed cell (Static) method	0.00513
344.42 K, Crystal, Closed cell (Static) method	0.00612
344.43 K, Metastable liquid, Closed cell (Static) method	0.01029
346.35 K, Crystal, Closed cell (Static) method	0.00743
346.53 K, Metastable liquid, Closed cell (Static) method	0.012
348.28 K, Metastable liquid, Closed cell (Static) method	0.01367
348.35 K, Crystal, Closed cell (Static) method	0.00894
350.35 K, Crystal, Closed cell (Static) method	0.01085
350.37 K, Metastable liquid, Closed cell (Static) method	0.01582
352.36 K, Metastable liquid, Closed cell (Static) method	0.01813
352.41 K, Crystal, Closed cell (Static) method	0.01316
354.35 K, Metastable liquid, Closed cell (Static) method	0.02079
354.4 K, Crystal, Closed cell (Static) method	0.01584
356.31 K, Metastable liquid, Closed cell (Static) method	0.02367
358.2 K, Metastable liquid, Closed cell (Static) method	0.02689
360.17 K, Metastable liquid, Closed cell (Static) method	0.03085
362.2 K, Metastable liquid, Closed cell (Static) method	0.03491
364.19 K, Metastable liquid, Closed cell (Static) method	0.04045
366.13 K, Metastable liquid, Closed cell (Static) method	0.04605
368.11 K, Closed cell (Static) method, Liquid	0.05207
370.06 K, Closed cell (Static) method, Liquid	0.05865
372.03 K, Closed cell (Static) method, Liquid	0.06591
374.17 K, Closed cell (Static) method, Liquid	0.07545
376.12 K, Closed cell (Static) method, Liquid	0.08537
378.03 K, Closed cell (Static) method, Liquid	0.09595
380 K, Closed cell (Static) method, Liquid	0.1071
381.93 K, Closed cell (Static) method, Liquid	0.119
383.93 K, Closed cell (Static) method, Liquid	0.1348
385.88 K, Closed cell (Static) method, Liquid	0.1513
387.86 K, Closed cell (Static) method, Liquid	0.1682
389.84 K, Closed cell (Static) method, Liquid	0.1876
391.79 K, Closed cell (Static) method, Liquid	0.2094
393.77 K, Closed cell (Static) method, Liquid	0.2339
395.73 K, Closed cell (Static) method, Liquid	0.259
397.68 K, Closed cell (Static) method, Liquid	0.284
399.69 K, Closed cell (Static) method, Liquid	0.3164
401.66 K, Closed cell (Static) method, Liquid	0.3517

Settings	Normal melting temperature [°C]
[1], Crystal	92.92

Settings	Molar enthalpy of transition or fusion [kcal/mol]
[2]	4.97

COc1c(Cl)cc(Cl)cc1Cl [2,4,6-trichloroanisole]
[1]
Settings	vapor or sublimation pressure [kPa]
297.11 K, Crystal, Closed cell (Static) method	0.00239
300.13 K, Crystal, Closed cell (Static) method	0.00337
303.1 K, Crystal, Closed cell (Static) method	0.00462
306.06 K, Crystal, Closed cell (Static) method	0.00649
309.01 K, Crystal, Closed cell (Static) method	0.00877
311.98 K, Crystal, Closed cell (Static) method	0.01199
315.2 K, Crystal, Closed cell (Static) method	0.01642
317.95 K, Crystal, Closed cell (Static) method	0.02189
319.65 K, Metastable liquid, Closed cell (Static) method	0.03551
320.87 K, Crystal, Closed cell (Static) method	0.02895
322.82 K, Metastable liquid, Closed cell (Static) method	0.04391
323.91 K, Crystal, Closed cell (Static) method	0.03921
325.77 K, Metastable liquid, Closed cell (Static) method	0.05384
326.89 K, Crystal, Closed cell (Static) method	0.05174
328.77 K, Metastable liquid, Closed cell (Static) method	0.06611
329.85 K, Crystal, Closed cell (Static) method	0.06647
331.73 K, Metastable liquid, Closed cell (Static) method	0.0803
334.71 K, Closed cell (Static) method, Liquid	0.09766
337.68 K, Closed cell (Static) method, Liquid	0.118
340.63 K, Closed cell (Static) method, Liquid	0.1424
343.63 K, Closed cell (Static) method, Liquid	0.1712
346.05 K, Closed cell (Static) method, Liquid	0.1971
348.6 K, Closed cell (Static) method, Liquid	0.2292
351.58 K, Closed cell (Static) method, Liquid	0.2724
354.51 K, Closed cell (Static) method, Liquid	0.3225
356.47 K, Closed cell (Static) method, Liquid	0.3593
359.37 K, Closed cell (Static) method, Liquid	0.4214
362.38 K, Closed cell (Static) method, Liquid	0.4943
365.32 K, Closed cell (Static) method, Liquid	0.5801
368.31 K, Closed cell (Static) method, Liquid	0.6729

Settings	Normal melting temperature [°C]
[1], Crystal	59.32

Settings	Molar enthalpy of transition or fusion [kcal/mol]
[2]	5.35
